# Experimental data: patent publication US11472814B2, “Thienopyranones and furanopyranones as checkpoint inhibitors and modulators of anti-tumor immunity” (SignalRx Pharmaceuticals, Inc., priority 2017, dated 2022)
# How the values were obtained:
# [1] = system: Bone marrow derived macrophages (BMDMs), M1 gene expression; assay: M1 marker mRNA in LPS stimulated bone marrow derived macrophages (RT PCR); type: cell-based, murine
# From the text: […] M2 markers Mmr, Ym1, Fizz1 and Mgl mRNA and M1 markers I11, 116 and Tnfa mRNA was quantitated by RT PCR. Values are mean±SEM (n=3-4). Expression of gene of interest is normalized to GAPDH. […] The data provide direct evidence that Compound 1 can block the immunosuppressive macrophage M2 gene expression and activate the M1 gene expression and therefore activate antitumor innate immune cell differentiation in vitro.
# (§1) Relative mRNA expression of IL4 or LPS polarized genes in murine bone marrow derived macrophages (BMDMs) treated with various concentrations of inhibitors in vitro. Conclusion: Compound 3 suppressed in vitro macrophage specific immunosuppressive M2 gene expression markers and augmented macrophage stimulatory immune response M1 genes respectively.
# T cells in CT26 tumors = assay: Flow cytometric quantification of T cells infiltrating CT26 tumors; type: in vivo, mice
# Protocol: Effect of Compound 3 treatment of CT26 tumor bearing mice in vivo 3 mg/kg by intraperitoneal injection QD (IP) for 14 days on number of CD3+/CD8+ T cells infiltrating the tumor tissue. Conclusion: Compound 3 increased CD8+ T cells in the tumor compartment by 800% in vivo. (n=6, p<0.001, t test) as compared to vehicle control treated mice.
# Values represent mean±SEM. Conclusion: Compound 3 decreased CD4+ T cells by 5.6-fold and increased CD8+ T cells in the tumor compartment by 6% in vivo as compared to vehicle control treated mice.
# SYK = target: T1, SYK (Homo sapiens, UniProt P43405); assay: SYK inhibition IC50 (Reaction Biology Corp.); type: biochemical; settings: 10-point curve; read-out: SYK IC50
# T1 construct: purchased Reaction Biology Corp., Malvern, Pa; (contract assay service)
# From the text: The inhibitory activity of a compound of the invention against PI3K and/or BRD4 and/or SYK and/or CDK4/6 can be readily determined using methods known to the skilled artisan, or by commercial vendors offering such services. […] In vivo, PI3K inhibition can be determined from target tissue biopsies by standard tissue processing to disrupt cells and then performing Western Blot analysis to determine the presence or absence of pAKT (substrate of PI3K) relative to a control sample. The activity of a compound of the invention as an inhibitor of a bromodomain-containing protein, such as a BET protein, such as BRD2, BRD3, BRD4, and/or BRDT, or an isoform or mutant thereof, may be determined in vitro, in vivo, or in a cell line. In vitro assays include assays that determine inhibition of bromodomain-containing proteins. Alternatively, inhibitor binding may be determined by running a competition experiment where a provided compound is incubated with a bromodomain-containing protein, such as a BET protein bound to known ligands, labeled or unlabeled. For example, bromodomain inhibition can be determined in vitro using Alpha Screen Technology (http://www.reactionbiologv.com/webapps/site/NewsPDFs/Bromodomain%20Assay %20Platform %20for %20Drug %20Screening %20and %20Discovery.pdf). In vivo bromodomain inhibition can be determined indirectly by evaluating the amount of protein present of proteins whose genes' transcription is influenced or controlled by the bromodomain protein, for example, the MYCN protein transcription is controlled by BRD4 (J. E. Delmore et al., Cell 2011, 146, 904-917; A. Puissant, Cancer Discov. 2013, 3, 308-323). Bromodomain inhibition may also be predicted by in silico modeling as described below in the Examples. Additionally, the company Promega offers a SYK luminescent assay to determine a compound's ability to inhibit the SYK protein (https://www.promega.com/-/media/files/resources/protocols/kinase-enzyme-appnotes/syk-kinase-assay-protocol.pdf?la=en).
# Compounds of the invention were characterized for their ability to inhibit target proteins using third party vendors offering such services. PI3K alpha, gamma, and delta inhibition activity was determined by Thermo Fisher Scientific-Biosciences Life Sciences Solutions, Madison, Wis. The bromodomain protein inhibition (binding domain 1 and 2 of BRD4) as well as SYK inhibition was determined at Reaction Biology Corp., Malvern, Pa. Additional information on each of the assays performed and services provided is available at each company's website on the internet (https://www.thermofisher.com/us/en/home/life-science.html and http://www.reactionbiology.com/webapps/site, respectively). The IC50 data (shown below in Table 5) was calculated from a 10-point curve and is expressed in nanomolar concentration (nM) rounded off to the nearest whole number. Where multiple values were obtained the range from lowest to highest values is presented. NI=no inhibition detected up to 50 uM or IC50 not reached at 50 uM.
# [2] = system: tumor associated macrophages (TAMs) from LLC tumors; assay: RT-PCR gene expression in tumor associated macrophages sorted from LLC tumors; type: in vivo, mice
# From the text: RT-PCR analysis of cDNAs generated from mRNAs reflecting tumor associated macrophages (TAMs) isolated from LLC tumors grown in WT animals and treated with Compound 3. ***p<0.001**p<0.01 and *p<0.05, t test. […] Expression of gene of interest is normalized to GAPDH. […] Statistical significance is accessed by t test. For example, Compound 3 augmented IL1 gene expression in TAMs 8-fold and suppressed Arginase (Arg) 98% in TAMs isolated from LLC tumors in vivo.
# [3] = system: Bone marrow derived macrophages (BMDMs), M2 gene expression; assay: M2 marker mRNA in IL4 stimulated bone marrow derived macrophages (RT PCR); type: cell-based, murine
# Protocol: Bone marrow derived macrophages (MOs) (BMDMs) were exposed to IL4 or LPS for 24 hours to stimulate the M2 or M1 macrophage transition in presence of Compound 1 and the known SYK inhibitor Bay-61-3606 at 1 μM conc. M2 markers Mmr, Ym1, Fizz1 and Mgl mRNA and M1 markers I11, 116 and Tnfa mRNA was quantitated by RT PCR. Values are mean±SEM (n=3-4). Expression of gene of interest is normalized to GAPDH. […] The data provide direct evidence that Compound 1 can block the immunosuppressive macrophage M2 gene expression and activate the M1 gene expression and therefore activate antitumor innate immune cell differentiation in vitro.
# as §1
# [4] = Table 8, 200 nM, LPS polarized murine BMDMs, control = 1
# [5] = CT26 tumors, flow cytometry, vs vehicle
# [6] = LLC tumors in WT animals, vs vehicle
# [7] = TAMs isolated from LLC tumors in vivo, vs vehicle
# [8] = Table 7, 200 nM, IL4 polarized murine BMDMs, control = 1
compound,measurement,setting,value
"Cc1nn(-c2ccnc(Nc3ccc(-c4csc5c(=O)cc(N6CCOCC6)oc45)cc3)n2)cc1CN1CCC1 [Compound 3, 3-[p-(4-{4-[(1-Azetidinyl)methyl]-3-methyl-1H-pyrazol-1-yl}-2-pyrimidinylamino)phenyl]-5-morpholino-4-oxa-1-thia-7-indenone]",Ifng relative mRNA expression (M1 gene),[1]; [4],5.043 ± 1.9
same,Il1 relative mRNA expression (M1 gene),[1]; [4],7.19 ± 0.9
same,Il6 relative mRNA expression (M1 gene),[1]; [4],2.5 ± 0.2
same,Nos2 relative mRNA expression (M1 gene),[1]; [4],2.458 ± 0.31
same,Tnfa relative mRNA expression (M1 gene),[1]; [4],2.2 ± 0.3
same,macrophage stimulatory immune response M1 genes,"[1]; murine BMDMs, LPS polarized, various concentrations",augmented
same,increase of CD8+ T cells in the tumor compartment,"T cells in CT26 tumors; CT26, 3 mg/kg IP QD 14 days, CD3+/CD8+, vs vehicle",800%
same,decrease of CD4+ T cells,T cells in CT26 tumors; [5],5.6 fold
same,increase of CD8+ T cells in the tumor compartment,T cells in CT26 tumors; [5],6%
same,CD3+ T cells (% of live cells),"T cells in CT26 tumors; CT26 tumors, Compound 3 3 mg/kg IP QD 14 days, vehicle 1.1 ± 0.29",8 ± 0.46 % of live cells
same,CD8+ T cells (% of CD3+ T cells),"T cells in CT26 tumors; CT26 tumors, flow cytometry, mean±SEM, n=3, vehicle 56 ± 3.9",62 ± 2.0 % of CD3+ T cells
same,CD4+ T cells (% of CD3+ T cells),"T cells in CT26 tumors; CT26 tumors, flow cytometry, mean±SEM, n=3, vehicle 56 ± 5.29",9.5 ± 0.7 % of CD3+ T cells
same,IC50,SYK,< 100 nM
same,expression of immune response genes in TAMs,[2]; [6],activated the expression of immune response genes
same,expression of macrophage M2 immunosuppressive genes in TAMs,[2]; [6],suppressed the expression of macrophage M2 immunosuppressive genes
same,Nos2 gene expression in macrophages sorted from LLC tumors,"[2]; TAMs from LLC tumors in treated WT mice, normalized to GAPDH, vehicle 0.95 ± 0.06",21 ± 0.19
same,Vegf gene expression in macrophages sorted from LLC tumors,"[2]; TAMs from LLC tumors in treated WT mice, normalized to GAPDH, vehicle 0.995 ± 0.06",0.56 ± 0.05
same,Il1 gene expression in macrophages sorted from LLC tumors,"[2]; TAMs from LLC tumors in treated WT mice, normalized to GAPDH, vehicle 1.0 ± 0.04",8.3 ± 1.43
same,Ifng gene expression in macrophages sorted from LLC tumors,"[2]; TAMs from LLC tumors in treated WT mice, normalized to GAPDH, vehicle 1 ± 0.3",3.26 ± 1.04
same,Il6 gene expression in macrophages sorted from LLC tumors,"[2]; TAMs from LLC tumors in treated WT mice, normalized to GAPDH, vehicle 1.0 ± 0.3",1.8 ± 0.16
same,Tgfb gene expression in macrophages sorted from LLC tumors,"[2]; TAMs from LLC tumors in treated WT mice, normalized to GAPDH, vehicle 1 ± 0.7",0.35 ± 0.014
same,Arg gene expression in macrophages sorted from LLC tumors,"[2]; TAMs from LLC tumors in treated WT mice, normalized to GAPDH, vehicle 1 ± 0.9",0.08 ± 0.004
same,Arginase (Arg) suppression in TAMs,[2]; [7],98%
same,"IL1 gene expression in TAMs, augmentation",[2]; [7],8 fold
same,Arg relative mRNA expression (M2 gene),[3]; [8],0.107 ± 0.01
same,Il10 relative mRNA expression (M2 gene),[3]; [8],0.058 ± 0.01
same,Mmr relative mRNA expression (M2 gene),[3]; [8],0.143 ± 0.03
same,Tgfb relative mRNA expression (M2 gene),[3]; [8],0.458 ± 0.01
same,Vegf relative mRNA expression (M2 gene),[3]; [8],0.294 ± 0.04
same,macrophage immunosuppressive M2 gene expression markers,"[3]; murine BMDMs, IL4 polarized, various concentrations",suppressed
